Reference: US7678787B2, “Pyrrolobenzodiazepine pyridine carboxamides and derivatives as follicle-stimulating hormone receptor antagonists” (Wyeth, priority 2005, dated 2010)

Columns and labels:
human FSH receptor = target: T1, human FSH receptor (Homo sapiens, UniProt P23945); assay: FSH receptor-dependent CRE-luciferase reporter gene assay (CHO FSH-R 6CRE-Luc cells); format: cell-based; details: dose-response format in presence of EC50 of purified human FSH; * n=3, ** n=2 averages
T1 construct: host or cells: CHO-K1 (CHO FSH-R 6CRE-Luc, 1D7 cells)
T1 sequence (P23945 18-695): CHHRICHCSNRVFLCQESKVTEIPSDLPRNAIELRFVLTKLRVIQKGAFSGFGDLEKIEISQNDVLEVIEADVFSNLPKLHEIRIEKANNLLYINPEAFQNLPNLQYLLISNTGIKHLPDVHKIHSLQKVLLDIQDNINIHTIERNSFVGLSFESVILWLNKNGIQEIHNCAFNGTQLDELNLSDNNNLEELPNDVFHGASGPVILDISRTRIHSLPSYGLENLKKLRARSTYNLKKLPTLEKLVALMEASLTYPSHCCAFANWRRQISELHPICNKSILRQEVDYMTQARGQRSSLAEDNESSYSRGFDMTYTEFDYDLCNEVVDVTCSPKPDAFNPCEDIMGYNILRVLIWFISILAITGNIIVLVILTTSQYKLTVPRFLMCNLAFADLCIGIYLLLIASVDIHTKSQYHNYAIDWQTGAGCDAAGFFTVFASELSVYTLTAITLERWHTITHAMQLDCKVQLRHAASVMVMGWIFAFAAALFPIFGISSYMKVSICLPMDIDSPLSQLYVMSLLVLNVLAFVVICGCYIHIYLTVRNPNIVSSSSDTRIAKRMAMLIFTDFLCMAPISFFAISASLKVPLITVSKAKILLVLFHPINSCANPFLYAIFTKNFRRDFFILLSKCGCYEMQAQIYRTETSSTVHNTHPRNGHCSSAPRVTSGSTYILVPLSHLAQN
Source text: FOLLICLE-STIMULATING HORMONE RECEPTOR-DEPENDENT CRE-LUCIFERASE REPORTER GENE ASSAY FOR THE IDENTIFICATION OF FOLLICLE-STIMULATING HORMONE (FSH) ANTAGONISTS
A Chinese hamster ovarian cell line that stably produces the human FSH receptor and a luciferase reporter gene regulated by cAMP response elements was used to identify and determine the relative potencies of human FSH receptor antagonists. See for example, Kelton, C. A., et al. Mol. Cell. Endocrinol. 89:141-151 (1992), Tilly, J. L., et al. Endocrinology 131:799-806(1992), and George, S. E., et al. J. Biomol. Screening 2:235-240 (1997).
Compound Vehicle: Stock compounds were solubilized in an appropriate vehicle, e.g., phosphate buffered saline (PBS) or dimethyl sulfoxide (DMSO), at 30 mM. The compounds subsequently were diluted in DMSO to working dilutions of 1 and 20 or 30 mM for 2-dose testing format and 1 μM-10 mM for dose-response format. The DMSO dilutions were diluted 500-fold in sterile growth medium [D-MEM/F-12 (GIBCO/BRL; Grand Island, N.Y.) containing 15 mM HEPES, 2 mM l-glutamine, pyridoxine hydrochloride, phenol red and 5% FETALCLONE® II (HyClone Laboratories, Inc; Logan, Utah), 0.2% DMSO, 100 units penicillin G/ml, and 100 μg streptomycin sulfate/ml (GIBCO/BRL)]. The concentration of the vehicle in each of the compound dilutions was the same.
Positive Controls: Purified human FSH (>98%) was purchased from Cortex Biochem, Inc. (San Leandro, Calif.) and 3-[(2S*,5R*)-5-{[2-(1H-Indol-3-yl)-ethylcarbamoyl]-methyl}-4-oxo-2-(5-phenylethynyl-thiophen-2-yl)-thiazolidin-3-yl]-benzamide (an FSH-R thiazolidinone antagonist) was prepared by processes described by R. A. Scheuerman et al. in U.S. Pat. No. 6,426,357 (Affymax).
The CHO FSH-R 6CRE-Luc cells (1D7 cells) were obtained from Affymax (Palo Alto, Calif.). These Chinese hamster ovary cells (CHO-K1) were engineered genetically to stably express the recombinant human FSH receptor gene and a luciferase reporter gene under the regulation of 6 copies of a cAMP response element. The cells were plated one day prior to treatment into 96-well white opaque plates at a density of 50,000 cells/100 μl/well in growth medium. On the day of treatment, the growth medium was removed from the wells by aspiration and 50 μl of fresh growth medium was added to each well. The cells were incubated at 37° C. in a humidified incubator with 5% CO2/95% air.
The treated cells were incubated for 4 hours at 37° C. in a humidified incubator with 5% CO2/95% air. At the end of the incubation period, luciferase activity was measured by chemiluminescence using a commercially available kit (LucScreen, Tropix, Inc., Bedford, Mass.) according to the manufacturer's specifications, except that Buffer 1 and Buffer 2 were mixed together in equal proportion prior to the addition of 100 μl of the combined reagents to each well. Chemiluminescence was detected using a luminometer (EG & G Berthold Microlumat LB 96 P, Wallac, Gaithersburg, Md.) with chemiluminescence measured for 1 sec/well. Background luminescence was measured for each well prior to the addition of the LucScreen reagent.
In the 96-well 2-dose format, each compound was tested in duplicate at each dose. […] One plate was used to test a maximum of 22 compounds.
The EC50 of purified human FSH alone was tested in triplicate with each test compound. The doses chosen to test each compound were extrapolated from the initial 2-dose screening process. Along with the test compounds, purified human FSH also was tested in a dose response (0.03, 0.1, 0.3, 1, 3, 10, and 30 ng/ml) for a positive control and quality control. One plate was used for 3 test compounds and the FSH positive control.
Luciferase activity is expressed as relative light units/sec/well. Luciferase activity in antagonist was compared to the appropriate negative and positive controls. For 2-dose testing, results are reported as luciferase activity and are expressed as percent inhibition of the response obtained from the EC50 of FSH.

hFSH-R = target: T2, hFSH-R (Homo sapiens, UniProt P23945); assay: cAMP accumulation (RIA) in CHO-3D2 cells (hFSH-R), hFSH-induced; format: cell-based; details: inhibition of cAMP accumulation induced by hFSH at EC20, CHO-3D2 cells
T2 construct: expressed in transfected cells; host or cells: CHO-3D2 cells (CHO-K1 parental line)
T2 sequence (P23945 18-695): T1 sequence (P23945 18-695)
Description: IN VITRO BIO-ASSAY OF AGONISTS AND ANTAGONISTS TO THE FSH RECEPTOR. SELECTIVITY AND DEPENDENCY OF AGONISTS AND ANTAGONISTS TO THE FSH RECEPTOR
Compound Vehicle: Stock compounds were solubilized in 100% DMSO (Sigma-Aldrich Chemical Co., St. Louis, Mo.) at a concentration of 30 mM. The compounds subsequently were diluted in sterile assay medium consisting of Opti-MEM® I (Invitrogen/Life Technologies, Carlsbad, Calif.) with 0.1% (w/v) BSA (Sigma-Aldrich) prior to use in the bio-assay. The final concentration of DMSO in the assay was 0.1%.
Plated cells are then incubated at 37° C. in a humidified 5% CO2/95% air atmosphere.
Assay: On the day of the assay, cells were washed three times with 100 μl/well of assay medium consisting of Opti-MEM® I (Invitrogen/Life Technologies) with 0.1% (w/v) BSA (Sigma-Aldrich). Medium was removed and 100 μl of assay medium was added to each well. Plates were incubated for an additional 30 minutes at 37° C. […] Reactions were terminated by the addition of 50 μl of 0.2N hydrochloric acid to each well and cAMP-accumulation was measured by radioimmunoassay (RIA) using a commercially available kit (Amersham Biosciences, Piscataway, N.J.).
All test compounds were evaluated in a dose-response paradigm ranging from 0.01 to 30 μM. Controls and test compounds were evaluated in quadruplicate in a 96-well format.
Along with the test compounds, FSH was run also as a postive control in the agonist mode using concentrations ranging from 0.1-1000 ng/ml.
Data were analyzed by one-way analysis of variance and significant differences between treatments and control determined by Least Significant Difference test.
Test compounds were compared to the effect of purified human FSH.

Compound | IC50 (human FSH receptor) | IC50 (hFSH-R) | melting point
CCN(CC)c1ccc(C(=O)N2Cc3ccc(C(=O)NCc4cccnc4)n3Cc3ccccc32)cc1 [Example 102] | 5.82 µM | 0.8 µM | 
Cc1cc(C(=O)N2Cc3ccc(C(=O)NCc4cccnc4)n3Cc3ccccc32)ccc1-c1ccccc1F [Example 20] | 3.7 µM | 1.3 µM | 
O=C(NCc1cccnc1)c1ccc2n1Cc1ccccc1N(C(=O)c1ccc(NCc3ccccc3)nc1)C2 [Example 119] | 10.5 µM | 6.7 µM | 
O=C(NCc1cccnc1)c1ccc2n1Cc1ccccc1N(C(=O)c1ccc(OC(F)(F)F)cc1)C2 [Example 85] | 6.44 µM | 1.1 µM | 
Cc1cc(C(=O)N2Cc3ccc(C(=O)NCc4cccnc4)n3Cc3ccccc32)ccc1-c1ccc(Cl)cc1 [Example 24] | 10.7 µM | 1.6 µM | 
Cc1cc(C(=O)N2Cc3ccc(C(=O)NCc4cccnc4)n3Cc3ccccc32)ccc1-c1ccccc1C(F)(F)F [Example 5] | 13.8 µM | 1.5 µM | 
Cc1cc(Cl)ccc1OCC(=O)N1Cc2ccc(C(=O)NCc3cccnc3)n2Cc2ccccc21 [Example 139] | 9.86 µM |  | 168 °C
O=C(NCc1cccnc1)c1ccc2n1Cc1ccccc1N(C(=O)c1ccc(-c3ccccc3Cc3nnn[nH]3)cc1)C2 [Example 19] | 2.4 µM |  | 164 to 167 °C
O=C(NCc1cccnc1)c1ccc2n1Cc1ccccc1N(C(=O)COc1ccc(Cl)cc1)C2 [Example 138] | 15.8 µM |  | 169 to 171 °C
O=C(NCc1cccnc1)c1ccc2n1Cc1ccccc1N(C(=O)c1ccc(Cl)c(Cl)c1)C2 [Example 81] | 18.4 µM |  | 192 °C
COc1ccc(C(=O)N2Cc3ccc(C(=O)NCc4cccnc4)n3Cc3ccccc32)cc1 [Example 89] | 12.2 µM |  | 110 to 112 °C
O=C(NCc1cccnc1)c1ccc2n1Cc1ccccc1N(C(=O)c1ccc(-c3ccccc3CN3CCCC3)cc1)C2 [Example 41] | 25.1 µM |  | 210 to 212 °C
O=C(NCc1cccnc1)c1ccc2n1Cc1ccccc1N(C(=O)c1cccc(F)c1)C2 [Example 78] | 18.1 µM |  | 101 °C
O=C(NCc1cccnc1)c1ccc2n1Cc1ccccc1N(C(=O)Cc1ccc(Cl)cc1)C2 [Example 142] | 18.5 µM |  | 83 °C

Now from value to compound:

IC50 (human FSH receptor) | IC50 (hFSH-R) | melting point | Compound
0.921 µM | 0.32 µM |  | CN(C)C(=O)Cc1ccccc1-c1ccc(C(=O)N2Cc3ccc(C(=O)NCc4cccnc4)n3Cc3ccccc32)cc1 [Example 40]
0.414 µM | 0.25 µM |  | CNC(=O)Cc1ccccc1-c1ccc(C(=O)N2Cc3ccc(C(=O)NCc4cccnc4)n3Cc3ccccc32)cc1 [Example 39]
7.65 µM |  | 119 to 124 °C | O=C(NCc1cccnc1)c1ccc2n1Cc1ccccc1N(C(=O)c1ccc(-c3ccncc3)cc1)C2 [Example 110]
2.8 µM | 0.7 µM |  | O=C(NCc1cccnc1)c1ccc2n1Cc1ccccc1N(C(=O)c1ccc(-c3ccccc3)cc1)C2 [Example 13]
1.45 µM | 0.9 µM |  | CCOc1ccccc1-c1ccc(C(=O)N2Cc3ccc(C(=O)NCc4cccnc4)n3Cc3ccccc32)cc1 [Example 33]
1.86 µM | 0.43 µM |  | CC(C)C(=O)c1ccccc1-c1ccc(C(=O)N2Cc3ccc(C(=O)NCc4cccnc4)n3Cc3ccccc32)cc1 [Example 36]
1.1 µM | 0.27 µM |  | N#Cc1ccccc1-c1ccc(C(=O)N2Cc3ccc(C(=O)NCc4cccnc4)n3Cc3ccccc32)cc1 [Example 30]
5.48 µM |  | 178 to 179 °C | O=C(NCc1cccnc1)c1ccc2n1Cc1ccccc1N(C(=O)c1ccc(-c3nccs3)cc1)C2 [Example 111]
1.55 µM | 0.59 µM |  | O=C(NCc1cccnc1)c1ccc2n1Cc1ccccc1N(C(=O)c1ccc(-c3ccccc3O)cc1)C2 [Example 34]
14.5 µM |  | 221 to 224 °C | CNC(=O)c1ccccc1-c1ccc(C(=O)N2Cc3ccc(C(=O)NCc4cccnc4)n3Cc3ccccc32)cc1 [Example 69]
> 30 µM |  | 171 to 173 °C | O=C(NCc1cccnc1)c1ccc2n1Cc1ccccc1N(C(=O)c1ccc(F)cc1)C2 [Example 93]
> 30 µM |  | 163 to 165 °C | CC(C)(C)OC(=O)c1ccccc1-c1ccc(C(=O)N2Cc3ccc(C(=O)NCc4cccnc4)n3Cc3ccccc32)cc1 [Example 64]
16.4 µM |  | 216 to 218 °C (dec.) | Cc1cccc(C)c1-c1ccc(C(=O)N2Cc3ccc(C(=O)NCc4cccnc4)n3Cc3ccccc32)cc1 [Example 12]
0.994 µM |  | 153 to 156 °C | NS(=O)(=O)c1ccccc1-c1ccc(C(=O)N2Cc3ccc(C(=O)NCc4cccnc4)n3Cc3ccccc32)cc1 [Example 16]
